# Experimental data published in the supplement of paper PMC10307832.
# Assays:
# Assay in all cases: relative viability (nuclei count vs DMSO), 5 days (fraction); higher = more cells survive
# [1] = compound: CC(C)C[C@@H](C(=O)N[C@H](C(=O)OC1CCCC1)c1ccccc1)[C@H](O)C(=O)NO [Tosedostat] + CC1(C)CCC(c2ccc(Cl)cc2)=C(CN2CCN(c3ccc(C(=O)NS(=O)(=O)c4ccc(N[C@H](CCN5CCOCC5)CSc5ccccc5)c(S(=O)(=O)C(F)(F)F)c4)cc3)CC2)C1 [Navitoclax] (partner 0.5 µM)
# How it was run: (§1)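 Five library-drug doses in √10 steps were combined with a fixed anchor-drug dose, or a single drug was given alone, by pin tool to lung cancer cell lines in 1536-well plates the day after seeding. Nuclei were stained and counted after 5 days. Relative viability is the nuclei count in treated wells over that in vehicle wells, taken as the median of duplicate plates.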
# [2] = compound: CC(C)C[C@@H](C(=O)N[C@H](C(=O)OC1CCCC1)c1ccccc1)[C@H](O)C(=O)NO [Tosedostat] + N=C(N)NC(=N)NCCc1ccccc1 [Phenformin] (partner 250 µM)
# How it was run: as §1
# [3] = compound: CC1=NN=C(O1)C2=NN=C(C=C2)N3CCC(CC3)OC4=C(C=CC(=C4)F)Cl + CCNC(=O)c1noc(-c2cc(C(C)C)c(O)cc2O)c1-c1ccc(CN2CCOCC2)cc1 [Luminespib] (partner 0.01 µM)
# How it was run: as §1
# [4] = compound: CC1=NN=C(O1)C2=NN=C(C=C2)N3CCC(CC3)OC4=C(C=CC(=C4)F)Cl + Cc1nc(NC(=O)N2CCC[C@H]2C(N)=O)sc1-c1ccnc(C(C)(C)C(F)(F)F)c1 [Alpelisib] (partner 2 µM)
# How it was run: as §1
Cell Line,relative viability ([1]; first compound 0.02 µM),relative viability ([1]; first compound 0.06325 µM),relative viability ([1]; first compound 0.2 µM),relative viability ([1]; first compound 0.6325 µM),relative viability ([1]; first compound 2 µM),relative viability ([2]; first compound 0.02 µM),relative viability ([2]; first compound 0.06325 µM),relative viability ([2]; first compound 0.2 µM),relative viability ([2]; first compound 0.6325 µM),relative viability ([2]; first compound 2 µM),relative viability ([3]; first compound 0.253 µM),relative viability ([3]; first compound 0.8 µM),relative viability ([3]; first compound 2.53 µM),relative viability ([3]; first compound 8 µM),relative viability ([4]; first compound 0.253 µM),relative viability ([4]; first compound 0.8 µM),relative viability ([4]; first compound 2.53 µM),relative viability ([4]; first compound 8 µM)
NCI-H1944,1.1,0.975,1.08,1.02,1.01,0.21,0.194,0.217,0.196,0.211,0.45,0.417,0.483,0.402,0.565,0.629,0.691,0.648
NCI-H1975,1.06,1.14,1,1.01,0.869,0.4,0.401,0.412,0.342,0.375,,,0.224,0.196,,0.725,0.753,0.779
NCI-H1993,0.895,0.877,0.817,0.747,0.603,0.514,0.507,0.459,0.497,0.499,0.636,0.829,0.74,0.725,0.616,0.619,0.65,0.702
NCI-H2009,1.2,1.12,1.17,1.06,1.07,0.562,0.477,0.477,0.468,0.419,0.596,0.565,0.539,0.523,0.712,0.714,0.646,0.626
NCI-H2023,1.07,0.989,1.05,0.938,0.923,0.397,0.38,0.382,0.351,0.359,0.376,0.389,0.336,0.253,0.499,0.444,0.43,0.361
NCI-H2085,1.04,1.06,1.09,1.05,1.08,0.55,0.646,0.713,0.673,0.682,0.499,,0.339,0.216,0.922,0.908,0.8,0.71
NCI-H2087,0.995,0.916,1,0.931,0.805,0.473,0.413,0.329,0.28,0.22,0.17,0.144,0.151,0.164,0.762,0.674,0.615,0.615
NCI-H2126,0.801,0.876,0.894,0.852,0.721,0.492,0.535,0.477,0.489,0.462,0.826,0.795,0.734,0.828,0.696,0.666,0.711,0.598
NCI-H2170,0.654,0.586,0.572,0.533,0.63,0.409,0.424,0.381,0.396,0.408,0.468,0.475,0.353,0.311,0.646,0.593,0.626,0.574
NCI-H2228,1,0.856,0.781,0.961,0.793,0.334,0.266,0.291,0.244,0.175,0.164,0.15,0.132,0.131,0.684,0.545,0.923,0.479
NCI-H2347,0.671,0.8,0.766,0.688,0.68,0.384,0.439,0.55,0.267,0.275,,0.433,0.421,0.459,0.788,0.758,0.801,0.682
NCI-H2405,1.18,0.846,0.82,0.812,0.611,0.398,0.407,0.397,0.368,0.359,0.558,0.434,0.534,0.612,0.745,0.778,0.691,0.828
NCI-H3122,1.05,1.05,0.996,1.05,1.03,0.415,0.385,0.362,0.368,0.292,0.0576,0.108,0.0895,0.0702,0.632,0.642,0.702,0.618
PC-3 [JPC-3],0.85,0.837,0.825,0.678,0.638,0.468,0.463,0.491,0.442,0.408,0.674,0.686,0.611,0.603,0.915,0.866,0.914,0.901
PC-14,1.03,0.999,1.04,0.994,1.06,0.653,0.54,0.452,0.448,0.38,0.163,,0.22,0.142,0.849,0.827,0.885,0.857
RERF-LC-KJ,1.03,0.953,0.948,0.517,0.614,0.406,0.395,0.461,0.364,0.312,0.75,0.647,0.612,0.673,0.765,0.695,0.839,0.781
SK-LU-1,0.889,0.854,0.939,0.608,0.771,0.598,0.535,0.52,0.428,0.525,0.218,,0.207,0.185,0.754,0.812,0.938,0.737
SK-MES-1,1.23,1.29,1.29,1.11,1,0.696,0.686,0.663,0.568,0.54,0.726,0.725,0.631,0.547,0.786,0.953,0.859,0.871
